According to patent US5250734A, “Phenanthrene methanol compounds useful as antimalarial agents” (Belmac Corporation, priority 1992, dated 1993):
Entries after “also recorded” stand apart in the source; their conditions may differ. Where a name gives a salt, the structure may show the parent alone. Read-outs that look alike come from different tables or passages of the source.

Legend:
[1] = tested on: Plasmodium berghei KBG 173; assay: Survival of mice infected with drug-sensitive malaria, compound of Synthesis Example 3, halofantrine or mefloquine; type: in vivo, Plasmodium berghei KBG 173 in ICR/HA Swiss mice; settings: SC
From the text: The protocol which is set forth below is a well-established model for the treatment of malaria in human beings, and has been adopted by the U.S. Army Medial Research Command.
The system used for the compounds formed in Synthesis Examples 2 and 3 was based on comparisons of responses to test compounds by Plasmodium berghei KBG 173 malaria in mice as expressed in mean survival times and the mean survival times of untreated controls. Thus, compounds noted as active produced increases in the survival times of the treated animals that are significant when compared with the survival times of untreated controls. Since an established disease is less sensitive to treatment than a disease in the early stages of development, treatment was withheld until the parasitemia was relatively high in order to ensure a more reliable assay of activity and the selection of appropriate compounds for pre-clinical studies.
(§1) Utilizing young ICR/HA Swiss mice and a standard inoculum of Plasmodium berghei KBG 173, it was possible to produce a uniform disease fatal to […] of untreated animals within 6 to 8 days with a mean survival time of 6.2 days. Test animals weighed from 18 to 22 grams but weight variations in any given experimental or control group were confined to 2-3 grams. All animals in any given test were approximately of the same age. Animals on test were housed in metal-topped plastic cages, given a standard laboratory diet and water ad libitum.
(§2) Test animals received an intraperitoneal injection of 0.5 ml of 1:100 dilution of heparinized heart's blood with a minimum of 90% parasitized cells (4×10^7 cells), drawn from donor mice infected one week earlier with Plasmodium berghei. The donor strain was maintained by weekly passages in separate groups of mice inoculated with a 0.5 ml of 1:500 dilution of heparinized heart's blood.
(§3) Test compounds were administered after dissolution or suspension in peanut oil. A single dose was given subcutaneously 72 hours after the mice were infected with Plasmodium berghei. At this time a 10-15 percent parasitemia had developed; the disease was well established but had not produced sufficient debility to alter the response of the host to toxic effects of the drug on test. Since treatment was withheld for three days to permit the infection to become well-established and death occurred in untreated controls within 6-8 days, it was felt that this system presented a candidate compound with the maximum challenge.

[2] = tested on: Plasmodium berghei KBG 173; assay: as above; type: in vivo, Plasmodium berghei KBG 173 in ICR/HA Swiss mice
[3] = tested on: Plasmodium berghei KBG 173; assay: Survival of malaria infected mice, compound of Synthesis Example 2, halofantrine or mefloquine; type: in vivo, Plasmodium berghei KBG 173 in ICR/HA Swiss mice
[4] = tested on: P. falciparum (multi-drug resistant Vietnam Smith strain and Cambodian Buchanan strain); settings: short period, minimum of two doses; Vietnam Smith and Cambodian Buchanan strains; cited from earlier work
[5] = tested on: Chesson strain of P. vivax; settings: short period, minimum of two doses; cited from earlier work
[6] = in vivo; cited from earlier work
Plasmodium berghei = assay: Positive control group of infected mice treated with pyrimethamine; type: in vivo, Plasmodium berghei in ICR/HA Swiss mice; settings: dose levels not stated
Experimental: as §3

[7] = tested on: Plasmodium falciparum FCM 29/Cameroon; assay: In vitro drug susceptibility test ([3H]hypoxanthine uptake), strain FCM 29/Cameroon; type: cell-based
Experimental: (§4) Three strains of P. falciparum were used. FCM 29/Cameroon was highly chloroquine- and quinine-resistant (IC50 […] and 800 nM, respectively). The strain was cloned by a dilution method. FCM 6/Thailand was moderately chloroquine-resistant (IC50 600 nM), while L-3/Ivory Coast was chloroquine-susceptible (IC50 20 nM). The continuous in vitro culture of the parasites was maintained under standard conditions, as described by W. Trager and J. B. Jensen, "Human malaria parasites in continuous culture", Science 193, 673-675 (1976), with a gas phase of 5% O2, 5% CO2, and 90% N2.
(§5) The test compound was dissolved in methanol to a concentration of 1 mg/ml. Triplicates of seven serial dilutions were prepared to obtain the final concentrations ranging from 0.4 to 25 ng/ml and distributed in 24-well plates. […]
(§6) The testing procedures used for the in vitro assay in this study were those described by J. Le Bras and P. Deloron, "In vitro study of drug sensitivity of Plasmodium falciparum: an evaluation of a new semi-microtest", American Journal of Tropical Medicine and Hygiene 32: 447-451 (1983). […] The filter discs were dried and placed in a mini-vial with 1.5 ml of liquid scintillation cocktail (OptiScint `Hisafe`, LKB, Wallac, England) and the amount of radioactivity incorporated by the parasites was measured by a liquid scintillation counter (Wallac 1410, Pharmacia, Sweden). […]

[8] = tested on: Plasmodium falciparum FCM 6/Thailand; assay: In vitro drug susceptibility test ([3H]hypoxanthine uptake), strain FCM 6/Thailand; type: cell-based; settings: mean ± SEM from four separate assays
Experimental: as §4, §5, §6

[9] = tested on: Plasmodium falciparum L-3/Ivory Coast; assay: In vitro drug susceptibility test ([3H]hypoxanthine uptake), strain L-3/Ivory Coast; type: cell-based; settings: two values given
Experimental: as §4, §5, §6

Plasmodium falciparum = assay: In vitro antimalarial activity against established lines of P. falciparum (overall statement); type: cell-based
Experimental: The compound of Synthesis Example 1 was tested against the established lines of Plasmodium falciparum in vitro. Halofantrine hydrochloride was used as a reference drug.
as §4
The test compound was dissolved in methanol to a concentration of 1 mg/ml. […]
as §6

[10] = tested on: Plasmodium falciparum (chloroquine-sensitive and resistant strains); settings: cited from earlier work
[11] = tested on: Plasmodium berghei KBG 173; assay: Mean parasitemias for mice treated with the compound of Synthesis Example 2; type: in vivo, Plasmodium berghei KBG 173 in ICR/HA Swiss mice
[12] = Toxicity in malaria infected mice; type: in vivo, ICR/HA Swiss mice; settings: 256 mg/kg/day
From the text: as §1, §2
Test compounds were administered after dissolution or suspension in peanut oil. A single dose was given subcutaneously 72 hours after the mice were infected with Plasmodium berghei. At this time a 10-15 percent parasitemia had developed; the disease was well established but had not produced sufficient debility to alter the response of the host to toxic effects of the drug on test. […]

Molecule: Cl.OC(CCNCCCc1ccccc1)c1cc2c(Cl)cc(Cl)cc2c2cc(C(F)(F)F)ccc12 (centres unmarked) [Synthesis Example 3, 1,3-dichloro-6-trifluoromethyl-9-[1-hydroxy-3-(3-phenyl-1-propylamino)propyl] phenanthrene hydrochloride]
- number of mice alive D + 18 / total ([1]; 16 mg/kg/day): 7/7
- number of mice alive D + 18 / total ([2]; 1 mg/kg/day, PO): 2/7
- number of mice alive D + 18 / total ([2]; 1 mg/kg/day, SC): 1/7
- number of mice alive D + 18 / total ([2]; 4 mg/kg/day, PO): 6/7
- number of mice dead/day died ([2]; 4 mg/kg/day, PO): 1/8
- number of mice alive D + 18 / total ([2]; 4 mg/kg/day, SC): 7/7
- number of mice alive D + 18 / total ([2]; 16 mg/kg/day, PO): 7/7
- number of mice alive D + 18 / total ([2]; 64 mg/kg/day, PO): 7/7
- number of mice alive D + 18 / total ([2]; 64 mg/kg/day, SC): 7/7
- number of mice alive D + 18 / total ([2]; 256 mg/kg/day, PO): 6/7
- number of mice dead/day died ([2]; 256 mg/kg/day, PO): 1/4
- number of mice alive D + 18 / total ([2]; 256 mg/kg/day, SC): 7/7

Molecule: CCCCN(CCCC)CCC(O)c1cc2c(Cl)cc(Cl)cc2c2cc(C(F)(F)F)ccc12 (centres unmarked) [halofantrine, 1-[1,3-dichlorotrifluoromethyl-9-phenanthryl]-3-di-(n-butyl)-aminopropanolhydrochloride]
- number of mice alive day 21/total ([3]; 1 mg/kg/day, PO): 4/7
- number of mice alive day 21/total ([3]; 1 mg/kg/day, SC): 2/7
- number of mice alive day 21/total ([3]; 4 mg/kg/day, PO): 6/7
- number of mice dead/day died ([3]; 4 mg/kg/day, PO): 1/19
- number of mice alive day 21/total ([3]; 4 mg/kg/day, SC): 7/7
- number of mice alive day 21/total ([3]; 16 mg/kg/day, PO): 6/7
- number of mice dead/day died ([3]; 16 mg/kg/day, PO): 1/19
- number of mice alive day 21/total ([3]; 16 mg/kg/day, SC): 6/7
- number of mice dead/day died ([3]; 16 mg/kg/day, SC): 1/21
- number of mice alive D + 18 / total ([1]; 1 mg/kg/day): 5/7
- number of mice alive D + 18 / total ([1]; 4 mg/kg/day): 7/7
- number of mice alive D + 18 / total ([1]; 16 mg/kg/day): 7/7
- number of mice alive D + 18 / total ([2]; 1 mg/kg/day, PO): 4/7
- number of mice dead/day died ([2]; 1 mg/kg/day, PO): 3/18
- number of mice alive D + 18 / total ([2]; 4 mg/kg/day, PO): 6/7
- number of mice dead/day died ([2]; 4 mg/kg/day, PO): 1/18
- number of mice alive D + 18 / total ([2]; 16 mg/kg/day, PO): 6/6
- antimalarial efficacy [4]: effective
- antimalarial efficacy [5]: effective
- systemic bioavailability [6]: problems with systemic bioavailability remained

Molecule: CCc1nc(N)nc(N)c1-c1ccc(Cl)cc1 [pyrimethamine]
- survival time (Plasmodium berghei): definite increases in survival time

Molecule: CCCCNCCC(O)c1cc2c(Cl)cc(Cl)cc2c2cc(C(F)(F)F)ccc12.Cl (centres unmarked) [Synthesis Example 1, 1,3-Dichloro-6-trifluoromethyl-9-[1-hydroxy-3-(butylamino)propyl] phenanthrene hydrochloride]
- IC50 [7]: 3.5 ± 0.6 ng/mL
- IC50 [8]: 3 ± 0.2 ng/mL
- IC50 ([9]; Plasmodium falciparum): 4.3 ng/mL
- IC50 ([9]; hydrochloride): 4.8 ng/mL
- activity compared with halofantrine (Plasmodium falciparum; P. falciparum, reference halofantrine): slightly less than that of halofantrine
- antimalarial activity (Plasmodium falciparum; chloroquine-susceptible and chloroquine-resistant strains, hydrochloride): high antimalarial activity against both chloroquine-susceptible and chloroquine-resistant strains; also recorded: potent antimalarial action at a low nanomolar range

Molecule: OC(c1cc(C(F)(F)F)nc2c(C(F)(F)F)cccc12)C1CCCCN1 (stereo not drawn) [Mefloquine, α-2-piperidinyl-2,8-bis(trifluorormethyl)-4-quinoline methanol]
- number of mice alive day 21/total ([3]; 1 mg/kg/day, PO): 0/7
- number of mice alive day 21/total ([3]; 4 mg/kg/day, PO): 3/7
- number of mice alive day 21/total ([3]; 16 mg/kg/day, PO): 7/7
- number of mice alive D + 18 / total ([1]; 1 mg/kg/day): 0/7
- number of mice alive D + 18 / total ([1]; 4 mg/kg/day): 4/7
- number of mice alive D + 18 / total ([1]; 16 mg/kg/day): 7/7
- number of mice alive D + 18 / total ([2]; 1 mg/kg/day, PO): 0/7
- number of mice alive D + 18 / total ([2]; 4 mg/kg/day, PO): 6/7
- number of mice dead/day died ([2]; 4 mg/kg/day, PO): 1/16
- number of mice dead/day died ([2]; 4 mg/kg/day, SC): 3/13
- number of mice alive D + 18 / total ([2]; 16 mg/kg/day, PO): 7/7
- antimalarial activity in humans [10]: exhibit antimalarial activity in humans against both chloroquine-sensitive and resistant strains

Molecule: C=C[C@H]1C[N@@]2CC[C@H]1C[C@H]2[C@H](O)c1ccnc2ccc(OC)cc12 [quinine, reference compound]
- IC50 ([7]; read-out: IC50 (strain resistance)): 0.8 µM

Molecule: 1,3-dichloro-6-triflurormethyl-[1-hydroxy-3-(3-phenyl-1-propylamino)propyl] phenanthrene quinate [Synthesis Example 2]
- number of mice alive day 21/total ([3]; 1 mg/kg/day, PO): 3/7
- number of mice alive day 21/total ([3]; 1 mg/kg/day, SC): 3/7
- number of mice alive day 21/total ([3]; 4 mg/kg/day, PO): 7/7
- number of mice alive day 21/total ([3]; 4 mg/kg/day, SC): 5/7
- number of mice alive day 21/total ([3]; 16 mg/kg/day, PO): 6/7
- number of mice dead/day died ([3]; 16 mg/kg/day, PO): 1/21
- number of mice alive day 21/total ([3]; 16 mg/kg/day, SC): 7/7
- number of mice alive day 21/total ([3]; 64 mg/kg/day, PO): 7/7
- number of mice alive day 21/total ([3]; 64 mg/kg/day, SC): 7/7
- number of mice alive day 21/total ([3]; 256 mg/kg/day, PO): 1/7
- number of mice alive day 21/total ([3]; 256 mg/kg/day, SC): 5/7
- mean parasitemia ([11]; 4 mg/kg/day, oral): 31.2
- mean parasitemia ([11]; 4 mg/kg/day, subcut.): 45.2
- mean parasitemia ([11]; 16 mg/kg/day, oral): 16.3
- mean parasitemia ([11]; 16 mg/kg/day, subcut.): 10.7
- mean parasitemia ([11]; 64 mg/kg/day, oral): 0.14
- mean parasitemia ([11]; 64 mg/kg/day, subcut.): 0.4
- mean parasitemia ([11]; 256 mg/kg/day, oral): 1.00
- mean parasitemia ([11]; 256 mg/kg/day, subcut.): 0.00
- mean parasitemia ([11]; 1 (printed "l") mg/kg/day, oral): 19.3
- mean parasitemia ([11]; 1 (printed "l") mg/kg/day, subcut.): 61.7
- toxicity [12]: Toxicity clearly evident at this level
